# US20180171288A1, “METHODS OF TREATING CANCER” (THE UNIVERSITY OF ROCHESTER, priority 2016, published 2018)
# Values joined by “and” are separate entries in the source; they are usually repeats but may differ in a detail not shown here. Equal entries are not always repeated. “Also recorded” adds a separate entry of the source. Where two headings read alike, the source gives them in different places.
# Tests used:
# [1] = system: OPCs isolated from the developing human central nervous system; test: Sensitivity of human OPCs to anticancer agents; assay type: cell-based
# From the text: This is a particularly difficult problem to solve in the context of cells of the central nervous system, as many of these cells are inherently more sensitive to anticancer agents than are cancer cells themselves. Previous studies have shown that one of the cell types of the brain that is most sensitive to the adverse effects of multiple chemotherapeutic agents are the oligodendrocyte progenitor cells (OPCs) that give rise to the myelin-forming oligodendrocytes of the central nervous system.
# human TMXR MCF7 cells = test: TMXR MCF7 mammary fat pad xenograft in NSG mice; settings: mouse, in vivo
# GBM cells [2] = test: Protein levels of direct and indirect c-Cbl targets in GBM cells; assay type: cell-based, human
# Experimental: Alternatively, restoration of c-Cbl function can be determined by analysis of changes in the levels of direct targets of c-Cbl, with changes in the levels of two or more c-Cbl targets caused by the application of a single therapeutic intervention being an indicator of c-Cbl activation. In such analyses, cells are treated with saline, with the CRA or DCLTD by itself, with a pro-oxidant or with the combination of a CRA or a DCLTD with a pro-oxidant. The ability of treatment with the combined agents to cause greater decreases in the levels of proteins that are direct targets of c-Cbl provides a surrogate indicator of c-Cbl activation.
# Six of the 10 compounds remaining were chosen to determine whether they restored the ability of oxidation of cells to cause decreases in levels of a c-Cbl target, an outcome that occurs when c-Cbl is activated via the redox/Fyn/c-Cbl pathway. These compounds indeed restored the ability of pro-oxidative stimulation to cause decreases in the levels of the epidermal growth factor receptor (EGFR), which is a c-Cbl target known to be important in growth of many cancer cells and that is of interest as a potential target in cancer treatment.
# There are two groups of such proteins, ones in which the connection to a c-Cbl target can be reasonably surmised based on prior research and ones for which the linkage to c-Cbl is currently unknown. Non-limiting examples of the first category of outcomes are activities of Erk1/2 and Akt, which both are downstream of receptor tyrosine kinases that are targets of c-Cbl. Further non-limiting examples are activity levels of NF-κB and serum response element (SRE), which are activated downstream of Akt and […], respectively.
# GBM cells [3] = test: Sensitivity of GBM cells to TMX / cell killing; assay type: cell-based, human
# From the text: The cell lines studied represent a range of glioblastoma subtypes and genotypes and generate human glioblastomas when transplanted into the CNS of immune-deficient mice.
# melanoma cells = test: Sensitivity of melanoma cells to TMX; assay type: cell-based
# c-Cbl = c-Cbl phosphorylation in GBM cells; assay type: cell-based, human
# Experimental: In this approach, cancer cells are treated with a CRA or a DCLTD in the presence or absence of an agent that causes cells to become more oxidized. The status of c-Cbl phosphorylation may be analyzed by any of a number of means well-known to those skilled in the art, including Western blot analysis of cell lysates with an antibody that identifies phosphorylated c-Cbl, for instance at tyrosine residues Y731 or Y771, analysis of cell labeling with such antibodies which may be conjugated with a fluorescent probe that makes them suitable for analysis by fluorescence microscopy, immunohistochemistry or by automated fluorescence analysis of some form, or by CYTOF mass cytometry analysis. The change in phosphorylation status is compared with that seen in untreated cells, in cells treated with the CRA or DCLTD by itself, or that treated with a pro-oxidant by itself.
# An example of the ability of DCLTDs to restore the ability of TMX to enhance phosphorylation of c-Cbl via the redox/Fyn/c-Cbl pathway is shown in FIG. 8. […] As predicted if activation was RFC pathway-mediated, such activation was inhibited by N-acetyl-L-cysteine (NAC, a glutathione pro-drug and anti-oxidant), thus confirming that TMX-induced activation of c-Cbl was dependent on the pro-oxidative activities of TMX.
# [4] = system: complex between c-Cbl and Cool-1/βpix; test: Complex between c-Cbl and Cool-1/βpix in GBM cells (immunoprecipitation, immunoblot); assay type: cell-based, human
# From the text: Lysates of treated and untreated cells were immuno-precipitated with anti-c-Cbl antibody followed by immunoblot analysis for Cool-1/βpix expression.
# Cool-1/βpix = Cool-1/βpix Serine340 phosphorylation (antibody blot / immunostaining); assay type: cell-based, human; settings: anti-phospho-Cool1/βpix antibody
# TMXR MCF-7 cells = test: Growth and killing of TMXR MCF-7 cells in vitro; assay type: cell-based, human; settings: for vulnerability / resistance of TMXR MCF-7 cells to 4^OH-CPP: 3 μM MPT, 5 μM TMX, 5 μM 4^OH-CPP
# [5] = system: tamoxifen-resistant luminal breast cancer cells
# [6] = system: complex between c-Cbl and Cool-1/βpix; settings: TMX-resistant luminal breast cancer cells
# GBM TICs = test: Tumor generation by GBM cells treated in vitro and transplanted intra-cranially in NSG mice; assay type: in vivo; settings: cells exposed 72 hrs in vitro, four GBM cell lines
# From the text: After treatment, 500,000 live cells were transplanted intra-cranially in NSG mice. […] In contrast with the effects of MPT+TMX in TICs, treatment with temozolomide (TMZ, the frontline treatment for glioblastoma), had no apparent effects on TICs (FIG. 12D).
# Unexpectedly, in light of the partial reduction in levels of Cool-1/βpix, and the similarly partial reduction in levels of proteins important in TIC biology, treatment with DCLTD-based therapies eliminates TICs. […] After treatment, 500,000 live cells were transplanted intra-cranially in NSG mice. […] Thus, treatment with temozolomide had little apparent effect on TIC elimination, in agreement with patient data indicating rapid recurrence of tumor even during the period of temozolomide treatment.
# Exposure of GBM cells to the combination of MPT+TMX led to the apparently complete elimination of GBM cancer stem cells. GBM cells from four different cell lines were exposed to MPT+TMX combination for 72 hrs in vitro, after which 500,000 live cells were transplanted intra-cranially in NSG mice.
# parental MCF-7 cells = assay type: cell-based, human
# hGBM27 = test: Intracranial xenograft, hGBM27; assay type: in vivo, NSG mice
# hGBM10 = test: Intracranial xenograft, hGBM10; assay type: in vivo, NSG mice
# human GBM cells = test: Established intracranial human GBM xenografts in NSG mice (cohorts together)
# MDA-MB-231 cells = test: Sensitivity of MDA-MB-231 BLBC cells to TMX; assay type: cell-based
# From the text: Sertraline and mefloquine both were identified in screens on MDA-MB-231 BLBC cells, in which c-Cbl is inhibited in a Cdc42-dependent manner.
# tumor growth = settings: in combination with TMX; cited from earlier work
molecule,measurement,setting,value
OCCNC1CCCc2c1[nH]c1ccc(-c3ccccc3)cc21 (stereo not shown) [CASIN],sensitivity of OPCs to TMX,[1],does not increase the vulnerability of OPCs to TMX
"O=P1(N(CCCl)CCCl)NCCCO1 (stereo not shown) [CPP, cyclophosphamide]",tumor growth,human TMXR MCF7 cells,already have initiated tumor growth midway through treatment
"CNCCCC12CCC(c3ccccc31)c1ccccc12 [MPT, maprotiline]",levels of Cool-1/βpix,GBM cells [2],decreases levels of the inhibitory protein Cool-1/βpix
same,"levels of the c-Cbl targets EGFR, Notch-1, β-catenin and PDGFRα",GBM cells [2],decreases were less marked
same,sensitivity of GBM cells to TMX,GBM cells [3],enhanced the sensitivity of GBM cells; also recorded: increase in tamoxifen sensitivity
same,sensitivity of melanoma cells to TMX,melanoma cells,increased the sensitivity of melanoma cells to TMX
same,c-Cbl phosphorylation,c-Cbl,enabled TMX-induced c-Cbl phosphorylation
same,levels of the complex between c-Cbl and Cool-1/βpix,[4],virtually complete elimination of complexes; also recorded: marked reductions in levels of the complex
same,Cool-1/βpix phosphorylation on Serine340,Cool-1/βpix,decreases the level of staining; also recorded: causes a decrease in levels of Cool-1/βpix phosphorylation
same,sensitivity of OPCs to TMX,[1],did not increase the sensitivity
same,sensitivity of OPCs to temozolomide,[1],does not increase the sensitivity of OPCs to temozolomide
same,vulnerability / resistance of TMXR MCF-7 cells to 4^OH-CPP,TMXR MCF-7 cells,only slightly increased vulnerability to 4^OH-CPP
same,tamoxifen sensitivity of tamoxifen-resistant luminal breast cancer cells,[5],increase in tamoxifen sensitivity
same,levels of the complex between c-Cbl and Cool-1/βpix,[6],causes a decrease in levels of the complex
"CC/C(=C(\c1ccccc1)c1ccc(OCCN(C)C)cc1)c1ccccc1 [TMX, tamoxifen]","levels of FoxM1, Sox2, HSF-1 and HSP70",GBM cells [2],does not have the above effects
same,c-Cbl phosphorylation,c-Cbl,alone was not sufficient to activate c-Cbl
same,"tumor generation after transplant of 500,000 live treated cells",GBM TICs,generated tumors within three weeks
same,effect on cell division and survival,parental MCF-7 cells,cytostatic but not lethal
same,cell division in the presence of TMX,"TMXR MCF-7 cells; 1 μM TMX, TMXR cells",continue to divide
same,vulnerability / resistance of TMXR MCF-7 cells to 4^OH-CPP,TMXR MCF-7 cells,only slightly increased vulnerability to 4^OH-CPP
"Cn1nnc2c(C(N)=O)ncn2c1=O [TMZ, temozolomide]",week of treatment in which tumor size began to increase,hGBM27; hGBM27,4 week
same,increase in tumor size (photon flux) at 12 weeks,"hGBM27; hGBM27, 3 weeks after cessation of treatment",> 5000 fold
same,increase in tumor size (photon flux) at the end of 9 weeks of treatment,"hGBM27; hGBM27, oral gavage 5 days on/2 days off",> 100 fold
same,median survival,hGBM27; hGBM27 cohort,11.5 weeks
same,increase in tumor size at 12 weeks,hGBM10; hGBM10,> 500 fold and 500 fold
same,median survival,hGBM10; hGBM10 cohort,12 weeks
same,increase in lifespan over saline-treated mice,human GBM cells; median 9 week survival of saline-treated mice,30%
same,time lived after treatment was stopped,"human GBM cells; mouse, in vivo",4-5 weeks and 2-6 weeks
CN(C)CCC=C1c2ccccc2CCc2ccccc21 [amitryptiline],sensitivity of GBM cells to TMX,GBM cells [3],none of them were as effective as MPT
CNCCC(Oc1ccc(C(F)(F)F)cc1)c1ccccc1 (stereo not shown) [fluoxetine],sensitivity of GBM cells to TMX,GBM cells [3],none of them were as effective as MPT
Cc1cccc(CN2CCN(C(c3ccccc3)c3ccc(Cl)cc3)CC2)c1 (stereo not shown) [meclizine],sensitivity of GBM cells to TMX,GBM cells [3],increased the vulnerabilty of GBM cells to TMX
OC(c1cc(C(F)(F)F)nc2c(C(F)(F)F)cccc12)C1CCCCN1 (stereo not shown) [mefloquine],sensitivity of melanoma cells to TMX,melanoma cells,increased the sensitivity of melanoma cells to TMX
CN[C@H]1CC[C@@H](c2ccc(Cl)c(Cl)c2)c2ccccc21 [sertraline],sensitivity of MDA-MB-231 BLBC cells to TMX,MDA-MB-231 cells,increased the sensitivity of these cells to TMX; also recorded: increase in tamoxifen sensitivity
same,sensitivity of OPCs to TMX,[1],does not increase sensitivity of OPCs to TMX
C=C(NC(=O)C(=C)NC(=O)c1csc(C2=N[C@@H]3c4csc(n4)[C@H]4NC(=O)c5csc(n5)[C@H]([C@](C)(O)[C@@H](C)O)NC(=O)[C@H]5CSC(=N5)/C(=C/C)NC(=O)[C@H]([C@@H](C)O)NC(=O)c5csc(n5)[C@]3(CC2)NC(=O)[C@H](C)NC(=O)C(=C)NC(=O)[C@H](C)NC(=O)[C@H]([C@@H](C)CC)N[C@@H]2C=Cc3c([C@H](C)O)cc(nc3[C@H]2O)C(=O)O[C@@H]4C)n1)C(N)=O [thiostrepton],sensitivity of GBM cells to TMX,GBM cells [3],does not increase sensitivity to TMX as potently as does MPT
same,c-Cbl phosphorylation,c-Cbl,not associated with a notable increase in c-Cbl phosphorylation
ML141,suppression of tumor growth,tumor growth,only provided partial suppression of tumor growth
